Where two headings read alike, the source gives them in different places.
How the values were obtained:
[1] = Metabolic stability in rat liver microsomes; type: in vitro ADME
[2] = Rat plasma protein binding; type: in vitro ADME
Aqueous solubility = type: physicochemical; conditions: aqueous medium (not further specified)
[3] = rat liver microsomes; cited from earlier work
MDCK-MDR1 cells = conditions: cited from earlier work
[4] = In vivo pharmacokinetics in Sprague-Dawley rats; conditions: male, rat, ip, 10 mg/kg
Sprague-Dawley rats = experiment: Locomotor activity; type: in vivo, rat; conditions: 10 mg/kg i.p., 30 min, p > 0.05
[5] = system: panel of ~50 GPCRs (PDSP); conditions: 10 μM; any of the receptors of the panel

SMILES: O=C(NCCc1cccc(C(F)(F)F)c1)Nc1ccc(Cl)cc1 [Compound 34, 3-(4-Chlorophenyl)-1-{2-[3-(trifluoromethyl)phenyl]ethyl}urea]
- %Qh (percentage of hepatic blood flow) [1]: 69.8%

SMILES: Cc1cccc(CCNC(=O)Nc2ccc(Cl)cc2)c1 [Compound 17, 3-(4-Chlorophenyl)-1-[2-(3-methylphenyl)ethyl]urea]
- %Qh (percentage of hepatic blood flow) [1]: 72.2%

SMILES: O=C(Nc1ccc(Cl)cc1)Nc1cccc(-c2cccc(N3CCCC3)n2)c1 [Compound 2, 1-(4-chlorophenyl)-3-{3-[6-(pyrrolidin-1-yl)pyridin-2-yl]phenyl}urea]
- fraction unbound [2]: 0.001
- solubility (Aqueous solubility): < 0.5 µM
- %Qh (percentage of hepatic blood flow) [3]: 72.6%
- Efflux BA/AB (MDCK-MDR1 cells): 0.8
- Papp (A-to-B) (MDCK-MDR1 cells): 2.6 ± 0 x10^−6 cm/s
- Papp (B-to-A) (MDCK-MDR1 cells): 2.2 ± 0.1 x10^−6 cm/s

SMILES: O=C(NCCc1cccc(Cl)c1)Nc1ccc(Cl)cc1 [Compound 31, 3-(4-Chlorophenyl)-1-[2-(3-chlorophenyl)ethyl]urea]
- CL/F ([4]; brain): 121 mL/min/kg
- half-life ([4]; brain): 54 min
- half-life ([4]; plasma): 37.8 min
- locomotion (Sprague-Dawley rats): did not significantly affect locomotion
- inhibition at PDSP panel receptors [5]: < 50 % inhibition

— article PMC8969894 (Journal of medicinal chemistry, 2021)
